Experimental data taken from EP2919004A1, “Bioassays on modified TLC/HPTLC plates” (Merck Patent GmbH, priority 2014, dated 2015).

The compounds below were run on hER (assay: HPTLC-pYES (planar yeast estrogen screen) on RP-18 W plate, lac-Z reporter / MUG fluorescence). Details: E2 equivalent calculated as EC50E2/EC50sample; recombinant Saccharomyces cerevisiae BJ3505; dose-response curves after separation on RP 18W plate, n=4.
Type: cell-based, human
Method: HPTLC. Standard and sample solutions (0.1-10 µL) were applied on the HPTLC plate RP-18 W (Merck Millipore, Darmstadt, Germany) as 6.5 mm bands by the Automatic TLC Sampler 4 (ATS4; CAMAG, Muttenz, Switzerland). […] The standard mixture was applied by overspaying of the individual standard solutions, which allowed flexibility for individual mixtures and volumes. For determination of the recovery rate, 0.1 µL P1 sample was sprayed on the plate and oversprayed with 0.1 µL - 2 µL CAPE standard solution. After sample application, the start zones were dried for 1 min using a hair dryer. Development was performed in a Twin Trough Chamber (20 x 10 cm, CAMAG), using n-hexane - toluene - ethyl acetate 4:1.5:1, v/v/v (all from ROTH) up to a migration distance of 70 mm. After development, the plate was dried with cold air using a hair dryer for 2 min to remove the residual solvent. The developed plate was documented at 366 nm illumination using the TLC Visualizer (CAMAG).
Cell cultivation. Saccharomyces cerevisiae BJ3505 (protease-deficient, MATα, PEP4: HIS3, Prb1Δ1.6R, HIS3Δ200, lys2-208, trp1Δ101, ura3-52) generated by McDonnell et al. (61, 62) was used for the pYES-assay. All experimental studies were based on stock of the recombinant estrogen sensitive yeast cells stored in 30% glycerol supplemented growth media, consisting of D-glucose 1 g/L, yeast nitrogen base 6.8 g/L, both Sigma Aldrich, Steinheim, Germany, and amino acid components according to Routledge and Sumpter (50), at -80 °C. From the stock, cells were streaked on an agar plate with growth medium (30°C, two days) to supply colonies for further suspension cultivation. Shaking suspension cultures were inoculated in 20 mL growth medium and cultured at 30 °C at 100 rpm for 18 h. Prior to the assay, cell concentration and viability determination was performed using a hemocytometer and trypan blue (0.4% Sigma Aldrich) staining. For the pYES, the cell number was adjusted to 2.5 x 10^8 cells in 50 mL with 150 µM CuSO4 supplemented growth medium. To remain constant cell quality within the exponential growth phase for further studies, cells were split daily by 1:10 dilution.
HPTLC-pYES. As the HPTLC was developed and cells were prepared, the pYES assay was started. The plate was automatically immersed into the cell suspension using the TLC Immersion Device (CAMAG) with a speed of 3.5 cm/s and an immersion time of 5 s. Thus, the cell suspension was homogeneously transferred onto the plate surface. The wettened plate was incubated in a horizontal position in a plastic box under almost 100% humidified air at 30 °C for 3 h. Thereafter, the plate was dried with cold air using a hair dryer for 2 min. For determination of the resulting ß-galactosidase, the plate was treated with the substrate 4-methylumbelliferyl-ß-D-galactopyranoside (MUG, Roth). ß-galactosidase acts on the substrate MUG to produce 4-methylumbelliferone (MU), detected as blue fluorescence at pH>7. MUG was dissolved in DMSO (20 mg/mL, Roth) and added to the reaction buffer (citric acid 6 g/L, disodium hydrogen phosphate 10 g/L, pH 12, Merck) to a final concentration of 0.5 mg/mL. The dried plate was immersed in the substrate solution according to the previous speed and immersion time. A second incubation period of 60 min at 37°C followed. The substrate reaction was terminated by immersion of the plate into a solution of glycine - NaOH (0.1 M, Roth), pH°12. […] Fluorescence measurement at 366/>400 nm was performed with the mercury lamp using the TLC Scanner 3 (CAMAG). Images were taken at 366 nm illumination using the Reprostar 3 documentation system (CAMAG).
The half maximal effective concentration (EC50) was calculated for comparison of the receptor affinities.
For CC(C)(c1ccc(O)cc1)c1ccc(O)cc1 [BPA, bisphenol A], the E2Eq was 3.3x10^-4. Work on C#C[C@]1(O)CC[C@H]2[C@@H]3CCc4cc(O)ccc4[C@H]3CC[C@@]21C [EE2, 17α-ethinylestradiol] yielded an E2Eq of 0.3. CCCCCCCCCc1ccc(O)cc1 [NP, 4-n-Nonylphenol] was tested, and the E2Eq was 2.3x10^-4.

Same assay, conditions: standard solutions or sample zone detected with the pYES; qualitative
With O=C(/C=C/c1ccc(O)c(O)c1)OCCc1ccccc1 [CAPE, Caffeic acid phenethyl ester] the “estrogenic/bioactive effect in pYES” value was “bioactive EDC zone”. In the case of O=c1cc(-c2ccc(O)c(O)c2)oc2cc(O)cc(O)c12 [luteolin], the “estrogenic/bioactive effect in pYES” value was “showed an estrogenic/bioactive effect”. In the case of O=c1c(O)c(-c2ccc(O)c(O)c2)oc2cc(O)cc(O)c12 [quercetin], the “estrogenic/bioactive effect in pYES” value was “showed an estrogenic/bioactive effect”.
